Laboratory results from PubChem BioAssay AID463199 (Broad Institute, 2010).
The source made the active and inactive calls.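 How the source made its calls: active means AC50, the dose giving half-maximal effect, exceeds a fixed cutoff for a compound that rescues yeast growth under heat; inactive means the rest, inconclusive results apart.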

Each molecule was assayed on S. cerevisiae Burl-1 ts mutant growth, BacTiter-Glo, 38.5C 24 h (assay: growth induction of Burl-1 ts yeast mutant, dose response, counter-screen for SUMOylation pathway inhibitor project, whole organism, S. cerevisiae, luminescence (AID 463199)).

| Structure (SMILES) | AC50 |
| --- | --- |
| CCn1cc(C(=O)NCc2ccccn2)c(=O)c2cc(F)c(N3CCN(C)CC3)cc21 | > 42 µM (inactive) |
| Cc1ccc(NS(=O)(=O)c2csc(C(N)=O)c2)cc1C | > 42 µM (inactive) |
| COc1ccccc1N1CCN(C(=O)C(=O)N/N=C/c2ccccc2F)CC1 | > 42 µM (inactive) |
| CCN(C(=O)CCS(=O)(=O)c1ccc2c(c1)oc(=O)n2C)c1ccc(OC)cc1 | > 42 µM (inactive) |
| O=c1[nH]c(CN2CCN(CCO)CC2)nc2ccccc12 | > 42 µM (inactive) |
| O=C(CCCn1cnc([N+](=O)[O-])n1)Nc1cccc2ccccc12 | > 42 µM (inactive) |
| O=C(NNc1ccccc1)C(CCO)C(=O)NNc1ccccc1 | > 42 µM (inactive) |
| COc1ccccc1N(CC(=O)NCC1CCCO1)C(=O)CCC(=O)Nc1cc(C)on1 (stereo not given) | > 42 µM (inactive) |
| Cc1cc(S(=O)(=O)N2CCCCC2CCNC(=O)C(=O)NCC2CCCO2)ccc1F (stereo not given) | > 42 µM (inactive) |
| CC1CCN(CCCOc2ccc(OCc3ccccc3)cc2)CC1 | > 42 µM (inactive) |
| Cc1c(Cl)cccc1NC(=S)NCCCN(C)C | > 42 µM (inactive) |
| COCCn1c(SCc2ccc(Cl)cc2)nc2c1c(=O)[nH]c(=O)n2C | > 42 µM (inactive) |
| N=c1n(CCCOc2ccc(Br)cc2)c2ccccc2n1CC(N)=O | > 42 µM (inactive) |
| Cc1ccc(C)c(NC(=S)NC(=O)c2cncc(Br)c2)c1 | > 42 µM (inactive) |
| Cc1ccc(C)n1-c1ccc(N(C)C)cc1 | > 42 µM (inactive) |
| COc1ccc(/C=C/C(=O)NC(=S)Nc2ccccn2)cc1 | > 42 µM (inactive) |
| Cc1ccc(S(=O)(=O)NN2C(=O)c3ccccc3NC2c2ccccc2F)cc1 (stereo not given) | > 42 µM (inactive) |
| O=C(Nc1nccs1)C1CCN(S(=O)(=O)c2ccc(Cl)c(C(F)(F)F)c2)CC1 | > 42 µM (inactive) |
| O=C(Oc1ccc2c(c1)OCO2)c1cccs1 | > 42 µM (inactive) |
| O=C1CCC(/C=C/c2ccccc2)=NN1Cc1ccc(Cl)c(Cl)c1 | > 42 µM (inactive) |

| Structure (SMILES) | AC50 |
| --- | --- |
| CC(=Nc1ccccc1)C1=C(O)CC(C)(C)CC1=O | > 42 µM (inactive) |
| O=C(N/N=C/C(Br)=C/c1ccccc1)c1cccnc1 | > 42 µM (inactive) |
| CN(Cc1ccc(C(C)(C)C)cc1)C(=O)c1ccc2c(=O)n3c(nc2c1)CCC3 | > 42 µM (inactive) |
| CCOc1cc(NC(=O)c2cccs2)c(OCC)cc1NC(=O)CCC(=O)NCCN1CCOCC1 | > 42 µM (inactive) |
| CC(=O)N1N=C(c2ccc(C(C)(C)C)cc2)OC1(C)C | > 42 µM (inactive) |
| CN(C)c1ccc(/C=C/c2cccc[n+]2[O-])cc1 | > 42 µM (inactive) |
| CCOC(=O)Cn1c(C)c(Br)c(=O)c2cccc(C)c21 | > 42 µM (inactive) |
| C/C(=N\N1CCN(Cc2ccccc2Cl)CC1)c1ccc([N+](=O)[O-])cc1 | > 42 µM (inactive) |
| CCOCCCNC(=O)C(c1ccc(OC)cc1)N(Cc1cccs1)C(=O)c1ccccn1 (stereo not given) | > 42 µM (inactive) |
| N/C(Cn1cncn1)=N\NC(=O)c1ccc(Cl)cc1Cl | > 42 µM (inactive) |
| Cc1c(Cl)cccc1NC(=O)Cn1c(CCC(=O)O)ccc1-c1ccccc1 | > 42 µM (inactive) |
| CCOc1ccccc1C(=O)N(Cc1cccs1)C1CCS(=O)(=O)C1 (stereo not given) | > 42 µM (inactive) |
| CC(C)c1ccc2c(c1)CCC1C(C)(CN)CCCC21C (stereo not given) | > 42 µM (inactive) |
| CCOP(=O)(OCC)C(NC(=O)c1cccc([N+](=O)[O-])c1)C(Cl)(Cl)Cl (stereo not given) | > 42 µM (inactive) |
| CCc1nnc2n1N=C(c1ccc(Cl)cc1)CS2 | > 42 µM (inactive) |
| NC(=O)C1=C[C@@H](c2ccc(Br)cc2)C[C@@H](OCCCCO)O1 | > 42 µM (inactive) |
| Cc1cccc(CSc2ccc(-c3ccco3)nn2)c1 | > 42 µM (inactive) |
| Cc1nnc(C)n1/N=C/c1cc2ccccc2nc1Cl | > 42 µM (inactive) |
| Nc1cccc2c1C(=O)N(c1ccccc1)C2=O | > 42 µM (inactive) |
| CCCCn1c(N)c(N(CC(C)C)C(=O)c2cc(-c3ccc(F)cc3)nc3ccccc23)c(=O)[nH]c1=O | > 42 µM (inactive) |
